# Test results as given in ChEMBL document CHEMBL3137667, “[Drug-induced liver injury; fourteenth updated edition of the bibliographic database of liver injuries and related drugs]” (Gastroenterol Clin Biol, 2004).
# How the values were obtained:
# [1] = Highest frequency of moderate liver toxicity observed during clinical trials, expressed as a percentage. [column '% BIOL' in source]; settings: human
# [2] = Highest frequency of acute liver toxicity observed during clinical trials, expressed as a percentage. [column '% AIGUE' in source]; settings: human
# [3] = Presence of at least one case with successful reintroduction. [column 'REINT' in source]; settings: human
# [4] = Comments (NB not yet translated). [column 'COMMENTAIRES' in source]; settings: human
# [5] = Times to onset, minimal and maximal, observed in the indexed observations. [column 'DELAI' in source]; settings: human
# [6] = human, serum
# [7] = human
# [8] = human; remark: listed apart in the source
# [9] = human; remark: listed apart in the source
# [10] = human, serum, 4383 h
# [11] = human; remark: listed apart in the source
# [12] = human; remark: listed apart in the source
# [13] = human; remark: listed apart in the source
# [14] = human; remark: listed apart in the source
# [15] = human; remark: listed apart in the source
# [16] = human; remark: listed apart in the source
# [17] = human, serum; remark: listed apart in the source
# 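For Hepatotoxicity (association with vascular disease) in this document: count of indexed literature references reporting vascular liver injury in humans, e.g. peliosis hepatitis, hepatic veno-occlusive disease or Budd-Chiari syndrome.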
# 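For Hepatotoxicity (benign tumour) in this document: value is a count of indexed literature references citing a benign tumour confirmed by histopathology.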
# 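For Hepatotoxicity (choleostasis) in this document: human cholestatic liver injury, shown by histopathology or by peak ALT or AST elevation over alkaline phosphatase ratio below 2, value counts indexed literature reports.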
# 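For Hepatotoxicity (chronic liver disease) in this document: chronic liver injury confirmed by histopathology or persistently raised serum aminotransferase activity beyond 6 months, value given as the count of indexed literature references.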
# 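For Hepatotoxicity (cirrhosis) in this document: value is a count of indexed literature references reporting cirrhosis confirmed by histopathology.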
# 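For Hepatotoxicity (cytolytic) in this document: human cytolytic liver injury, shown by histopathology or by a ratio above 5 of peak ALT or AST elevation to alkaline phosphatase elevation, value counts indexed references.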
# 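For Hepatotoxicity (granulomatous hepatitis) in this document: value is a count of indexed literature references reporting granulomatous liver disease confirmed by histopathology.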
# 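For Hepatotoxicity (malignant tumour) in this document: malignant tumour confirmed by histopathology, value gives the count of indexed literature references reporting it.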
# 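For Hepatotoxicity (severe hepatitis) in this document: human clinical data: severe hepatitis, meaning potentially life-threatening liver failure or clinically observed cases, the value counts how many indexed literature references report it.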
# 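For Hepatotoxicity (steatosis) in this document: steatosis confirmed by histopathology, value is the count of indexed references.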
Structure (SMILES),Hepatotoxicity (moderate) ([1]; Liver),Hepatotoxicity (acute) ([2]; Liver),Hepatotoxicity (successful reintroduction) [3],Hepatotoxicity (comment) [4],Hepatotoxicity (time to onset) [5],Hepatotoxicity (moderate) [6],Hepatotoxicity (severe hepatitis) ([9]; Liver),Hepatotoxicity (chronic liver disease) [10],Hepatotoxicity (cirrhosis) [11],Hepatotoxicity (association with vascular disease) [13],Hepatotoxicity (steatosis) [14],Hepatotoxicity (malignant tumour) [15],Hepatotoxicity (benign tumour) [16],Hepatotoxicity (moderate) [1],Hepatotoxicity (acute) [2],Hepatotoxicity (acute) [17],Hepatotoxicity (cytolytic) [7],Hepatotoxicity (choleostasis) [8],Hepatotoxicity (severe hepatitis) [9],Hepatotoxicity (granulomatous hepatitis) [12],further results
CC(C)(C)NC(=O)[C@@H]1C[C@@H]2CCCC[C@@H]2CN1C[C@@H](O)[C@H](Cc1ccccc1)NC(=O)[C@H](CC(N)=O)NC(=O)c1ccc2ccccc2n1,44%,12.5%,yes,REACTIVATION_HVB,< 1 day - 6 months,7,0,0,0,0,0,0,0,,,,,,,,Hepatotoxicity (cytolytic) ([7]; Liver): 10; Hepatotoxicity (choleostasis) ([8]; Liver): 0; Hepatotoxicity (granulomatous hepatitis) ([12]; Liver): 0
Nc1cc([As]2[As](c3ccc(O)c(N)c3)[As](c3ccc(O)c(N)c3)[As](c3ccc(O)c(N)c3)[As]2c2ccc(O)c(N)c2)ccc1O.Nc1cc([As]2[As](c3ccc(O)c(N)c3)[As]2c2ccc(O)c(N)c2)ccc1O (configuration not stated),,,yes,CHOLESTASE_PROLONGEE CHOLANGITE,1 week - 1 year,0,,0,0,0,0,0,0,0%,0%,6,1,1,1,0,
CC(C)(C)NC(=O)[C@@H]1CN(Cc2cccnc2)CCN1C[C@@H](O)C[C@@H](Cc1ccccc1)C(=O)N[C@H]1c2ccccc2C[C@H]1O.O,8%,9.1%,yes,REACTIVATION_HVB/HVC LITHIASE,5 hours - 19 months,5,4,0,0,0,3,0,0,,,12,8,0,,0,
CC(=O)CC(c1ccc([N+](=O)[O-])cc1)c1c(O)c2ccccc2oc1=O (configuration not stated) [ACENOCOUMAROL],,,yes,RC/PHENPROCOUMON CHOLESTASE_PROLONGEE,2 days - 5 years,2,,1,0,0,0,0,0,0%,0%,8,3,6,0,0,
CCN(CCCc1ccccc1)CCCc1ccccc1 [ALVERINE],,,yes,AC_ANTI-N,4 days - 40 days,0,,0,0,0,0,0,0,0%,0%,2,2,0,0,0,
CC(NC(C)(C)C)C(=O)c1cccc(Cl)c1 (configuration not stated) [BUPROPION],0%,0%,yes,PERICHOLANGITE,4 days - 80 days,1,1,0,0,0,0,0,0,,,4,4,2,,0,
O=C(N[C@H](CO)[C@H](O)c1ccc([N+](=O)[O-])cc1)C(Cl)Cl [CHLORAMPHENICOL],,,yes,RC/COTRIMOXAZOLE,1 month - 2 months,1,,0,0,0,1,0,0,46.2%,7.7%,14,2,1,0,0,
C[C@]12CC[C@@H]3c4ccc(OC(=O)N(CCCl)CCCl)cc4CC[C@H]3[C@@H]1CC[C@@H]2O [ESTRAMUSTINE],,,yes,NASH,1 month,3,,1,0,0,1,0,0,2%,2%,2,1,0,0,0,
CCOC(=O)/C=C(C)/C=C/C=C(C)/C=C/c1c(C)cc(OC)c(C)c1C [ETRETINATE],,,yes,I/METHOTREXATE CHOLANGITE,1 week - 1 year,31,,7,1,0,5,0,0,33%,1.5%,20,12,6,2,1,
NC(N)=Nc1nc(CSCCC(N)=NS(N)(=O)=O)cs1 [FAMOTIDINE],2.8%,0%,yes,RC/CIMETIDINE,3 days - 3 weeks,12,0,0,0,0,0,0,0,,,5,,,,,Hepatotoxicity (cytolytic) ([7]; Liver): 4; Hepatotoxicity (choleostasis) ([8]; Liver): 0; Hepatotoxicity (granulomatous hepatitis) ([12]; Liver): 0
OCCN1CCN(CCCN2c3ccccc3Sc3ccc(C(F)(F)F)cc32)CC1 [FLUPHENAZINE],,,yes,RC/HALOPERIDOL,2 weeks,2,,0,0,0,0,0,0,0%,1%,5,1,4,0,0,
CC(C)(C)c1ccc(C(O)CCCN2CCC(C(O)(c3ccccc3)c3ccccc3)CC2)cc1 (configuration not stated) [TERFENADINE],19.2%,0%,yes,DESTRUCTION_VB,4 weeks - 5 months,1,0,0,0,0,0,0,0,,,,2,2,,0,
